{"source": "paper PMC4967898", "about": "“Peptides interfering with protein-protein interactions in the ethylene signaling pathway delay tomato fruit ripening” (Scientific Reports, 2016)", "key": {"[1]": {"test_system": "climacteric tomato fruits", "test": "Real-time monitoring of ethylene production of tomato fruits (laser-based ethylene detector)", "type": "in vivo, tomato (Solanum pimpinellifolium)", "method": "Aminoethoxyvinyl glycine (AVG) was purchased from Sigma-Aldrich, St Louis, MO (purity ~95%). SmartFresh^SM (AgroFresh, Spring House, PA) was used as sugar-based powder formulation of 1-MCP. Concentration of 1-MCP was calculated according to the percentage of active ingredient (0.14%) and release from the SmartFresh^SM powder. For comparison concentration of all inhibitors are expressed in terms of molarity. For treatment of tomato fruits with NOP-1, AVG and MCP, inhibitors were dissolved in the FRET buffer described in the previous section to a final concentration of 200 μM. Green tomato fruits (Solanum pimpinellifolium) from the same estimated developmental stage were harvested from the panicle and water-cleaned. 300 μL of the inhibitor solution was applied onto the tomato surface with a brush and the fruits were air-dried for 30 min. As an alternative application, tomato fruits were plunged into 2 mL of the inhibitor solution and incubated for 30 min in this solution or 200 μL of the peptide-containing solution were carefully injected into the tomato tissue by a hypodermic syringe. Three individual tomato fruits were treated for the different applications of the peptide in order to document the ripening process. After inhibitor-treatment tomato fruits were transferred to a vial closed with aluminum foil and stored in the dark at room temperature. Maturation process was documented every second day for at least 20 days. For measurement of ethylene production, green tomato fruits were treated as described above.\nReal-time monitoring of ethylene production\nEthylene production was continuously monitored over 19 days with a laser-based ethylene detector (ETD-300; Sensor Sense BV; Nijmegen, Netherlands). A detailed description of the system has been given elsewhere. Briefly, the detector consists of a laser emitting radiation in the 10 micrometers infrared wavelength region and a photoacoustic cell, in which ethylene is detected due to its strong fingerprint-like absorption pattern in this region. Inside the photoacoustic cell ethylene can absorb the laser radiation and converts it into kinetic energy by energy exchange processes, resulting in local heating of the sample. By switching on and off the light, rapid heating/cooling can occur, giving rise to a periodical pressure change, i.e. sound wave. The amplitude of these waves is directly proportional to the concentration of ethylene in the photoacoustic cell and can be detected very accurately with sensitive miniature microphones.\nSix tomato fruits for each treatment, including an untreated group (buffer control, CT) were placed into glass cuvettes (150 ml volume) and connected to a gas flow through system (VC-6, Sensor Sense BV; Nijmegen, Netherlands) under a continuous flow routine as described in Ref. [58]. The […] ensured that the samples were continuously flushed with air at a constant flow of 2 l/h and allowed automated sampling of ethylene from the headspace of six cuvettes. Each cuvette was alternatively connected to the ETD-300 and ethylene emitted in the headspace was measured for 12 min. […] The ethylene production was related to the emission rate by multiplying the measured value with the flow rate (expressed in nanoliters per hour, nl/h) and further normalized with the fresh weight (expressed in grams, gFW); the end result being nanoliters per hour per gram of fresh weight, nl/h∙gFW."}, "[2]": {"test": "Fluorescence of the dyes on their own (FRET control)", "conditions": "100 μM peptide; free dyes", "from_the_text": "For this purpose, we made use of a fluorescence resonance energy transfer (FRET)-based in vitro assay, originally established for the respective Arabidopsis signaling proteins. Recombinant ethylene proteins LeETR1 and LeEIN2^462–1316 were labeled with fluorescent Alexa dyes[36] as described in the Methods section. LeETR1 was labeled with Alexa Fluor 488, while LeEIN2^462–1316 was labeled with Alexa Fluor 568. As the emission spectrum of the donor fluorophore partially overlaps with the excitation spectrum of the acceptor fluorophore, the dyes form a FRET pair and energy transfer from the donor to the acceptor fluorophore is possible when both probes get in close proximity. […] Formation of the complex is monitored by FRET from the donor molecule Alexa Fluor 488 to the acceptor molecule Alexa Fluor 568. Processes or molecules that prevent complex formation result in a reduced FRET from the donor to the acceptor, which is detected as reduced acceptor fluorescence at the emission maximum.\n(b) Calculation of IC50 value for NOP-1. Data were obtained in the FRET-assay in presence of increasing concentrations of NOP-1 peptide. […] (c) Determination of Kd value of NOP-1 binding to LeETR1 based on MST is illustrated. MST-signal is plotted against the NOP-1 concentration. […] All data (a,b,c) represent the mean +/− standard deviation."}}, "note": "“Also recorded” adds a separate entry of the source."}
{"molecule": "CC(C)C[C@H](NC(=O)[C@H](CCCNC(=N)N)NC(=O)[C@H](CCCNC(=N)N)NC(=O)[C@H](CCCCN)NC(=O)[C@H](Cc1ccc(O)cc1)NC(=O)[C@H](CCCNC(=N)N)NC(=O)[C@H](CCCCN)NC(=O)[C@@H](N)CC(C)C)C(N)=O", "note": "[NOP-1, LKRYKRRL-NH2]", "values": [{"measurement": "time of ethylene production peak, injected or incubated fruits", "setting": "[1]; 200 μM NOP-1, injected or incubated", "value": "6 to 8", "unit": "days"}, {"measurement": "initial ethylene burst in injected fruits", "setting": "[1]; 200 μM NOP-1, injected, attributed to wounding", "value": "ethylene burst detected in the injected fruits; also recorded: initial burst in ethylene production within the first hours"}, {"measurement": "time of ethylene production peak, surface-treated fruits", "setting": "[1]; 200 μM NOP-1, surface-treated, same time as control fruits", "value": "~12", "unit": "days"}, {"measurement": "ethylene production compared with controls (in words)", "setting": "[1]; 200 μM NOP-1, surface treatment, injection, incubation, versus untreated fruits and buffer control, six fruits per treatment, 21 °C, dark", "value": "do not significantly differ from controls; also recorded: No reduction in ethylene production is evident; also recorded: modest increase rather than an inhibition of ethylene production"}, {"measurement": "Ethylene production over 18 days (total ethylene release, average of applications)", "setting": "[1]; fruits treated with 200 μM NOP-1, average of surface-application, incubation and injection, injected fruits corrected for initial ethylene burst, six fruits per treatment, 21 °C, dark", "value": "616 +/- 46 nl/gFW"}, {"measurement": "effect on fluorescence of the dyes on their own", "setting": "[2]", "value": "not affected by the peptides; also recorded: Neither of both peptides affected fluorescence of the free, unlabeled dyes"}]}
